From US20030175438A1, “Treatments of solid substrates to enhance durability of treatments placed thereon” (priority 2002, published 2003)

Assay: Bromphenol Blue (BPB) Extraction Method, spectrophotometric at 595 nm (modified CTM 0824), on treated fabric
Format: physicochemical
Conditions: for BOILED IN WATER % EXTRACTION / CHANGE / NO BOIL % EXTRACTION: Table XII; for % BPB EXTRACTION CHANGE / % EXTRACTION CHANGE / % BPB Extraction (change on boiling) / EXTRACTION CHANGE: boiled vs not boiled; for Boiling Durability - % BPB Extraction: Boil 30 min., Table XIV; for Strike Rate - % BPB Extraction: No Boil, Table XIII; for Boiled in H20 % Extraction / Change % Extraction / No Boil % Extraction: Table XI

Structure (SMILES): CCCCCCCCCCCCCCCCCC[N+](C)(C)CCC[Si](OC)(OC)OC.[Cl-] [AMT, N, N-dimethyl-N-Octadecyl-3-(trimethoxysilyl)propanaminium chloride]
- BOILED IN WATER % EXTRACTION (130° C./5 minutes): 27%
- CHANGE (130° C./5 minutes): −34%
- NO BOIL % EXTRACTION (130° C./5 minutes): 61%
- CHANGE (130° C./30 minutes): −41%
- NO BOIL % EXTRACTION (130° C./30 minutes): 68%
- % Extraction @ 595 nm (ACRYLIC MODACRYLIC, boiled 30 minutes, Table IV): 45%
- % BPB EXTRACTION CHANGE (ACRYLIC MODACRYLIC, Table IV): −46%
- % Extraction @ 595 nm (ACRYLIC MODACRYLIC, not boiled, Table IV): 91%
- Boiling Durability % BPB EXTRACTION @ 595 nm (ACRYLIC, boiled 30 minutes, Table XVII): 14%
- % EXTRACTION CHANGE (ACRYLIC, Table XVII): −42%
- Boiling Durability % BPB EXTRACTION @ 595 nm (ACRYLIC, not boiled, Table XVII): 56%
- BOILED IN WATER % EXTRACTION (AIR DRIED): 37%
- CHANGE (AIR DRIED): −38%
- NO BOIL % EXTRACTION (AIR DRIED): 75%
- % BPB EXTRACTION @ 595 nm (COTTON, boiled 30 minutes, Table III): 95%
- % Extraction @ 595 nm (COTTON, boiled 30 minutes, Table IV): 94%
- % Extraction @ 595 nm (COTTON, boiled 30 minutes, Table VI): 94%
- % BPB EXTRACTION @ 595 nm (COTTON, boiled 30 minutes, Table XV): 92%
- % EXTRACTION CHANGE (COTTON, Table III): −1%
- % EXTRACTION CHANGE (COTTON, Table IX): −1%
- % EXTRACTION CHANGE (COTTON, Table VII): +2%
- % EXTRACTION CHANGE (COTTON, Table XV): −1%
- % BPB EXTRACTION @ 595 nm (COTTON, boiled, Table IX): 92%
- % BPB EXTRACTION @ 595 nm (COTTON, boiled, Table VII): 97%
- % BPB EXTRACTION @ 595 nm (COTTON, not boiled, Table III): 96%
- % Extraction @ 595 nm (COTTON, not boiled, Table IV): 95%
- % BPB EXTRACTION @ 595 nm (COTTON, not boiled, Table IX): 93%
- % Extraction @ 595 nm (COTTON, not boiled, Table VI): 94%
- % BPB EXTRACTION @ 595 nm (COTTON, not boiled, Table VII): 95%
- % BPB EXTRACTION @ 595 nm (COTTON, not boiled, oven dried 130° C. 5 minutes, Table XV): 93%
- % Extraction @ 595 nm (NYLON, boiled 30 minutes, Table I): 45%
- % BPB EXTRACTION @ 595 nm (NYLON, boiled 30 minutes, Table III): 20%
- % Extraction @ 595 nm (NYLON, boiled 30 minutes, Table IV): 45%
- % BPB EXTRACTION @ 595 nm (NYLON, boiled 30 minutes, Table XV): 30%
- Boiling Durability % BPB EXTRACTION @ 595 nm (NYLON, boiled 30 minutes, Table XVII): 26%
- % BPB Extraction (change on boiling) (NYLON, Table I): −37%
- % EXTRACTION CHANGE (NYLON, Table III): −57%
- % BPB EXTRACTION CHANGE (NYLON, Table IV): −25%
- % EXTRACTION CHANGE (NYLON, Table IX): −66%
- EXTRACTION CHANGE (NYLON, Table VI): −71%
- % EXTRACTION CHANGE (NYLON, Table VII): −69%
- % EXTRACTION CHANGE (NYLON, Table XV): −59%
- % EXTRACTION CHANGE (NYLON, Table XVII): −54%
- % BPB EXTRACTION @ 595 nm (NYLON, boiled, Table VII): 18%
- % Extraction @ 595 nm (NYLON, not boiled, Table I): 82%
- % BPB EXTRACTION @ 595 nm (NYLON, not boiled, Table III): 77%
- % Extraction @ 595 nm (NYLON, not boiled, Table IV): 70%
- % Extraction @ 595 nm (NYLON, not boiled, Table VI): 82%
- % BPB EXTRACTION @ 595 nm (NYLON, not boiled, Table VII): 87%
- % BPB EXTRACTION @ 595 nm (NYLON, not boiled, oven dried 130° C. 5 minutes, Table XV): 89%
- Boiling Durability - % BPB Extraction (Nylon): 14.42%
- Boiling Durability - % BPB Extraction (Nylon, treatment at pH = 11): 17.83%
- Boiling Durability - % BPB Extraction (PET Staple): 6.82%
- Boiling Durability - % BPB Extraction (PET Staple, treatment at pH = 11): 37.6%
- Strike Rate - % BPB Extraction (PET Staple, 0.25 grams of fabric): 17.36%
- Boiling Durability - % BPB Extraction (PET, treatment at pH = 11): 14.38%
- Strike Rate - % BPB Extraction (PET, 0.25 grams of fabric): 4.98%
- % Extraction @ 595 nm (PET, boiled 30 minutes, Table I): 18%
- % BPB EXTRACTION @ 595 nm (PET, boiled 30 minutes, Table III): 20%
- % Extraction @ 595 nm (PET, boiled 30 minutes, Table VI): 26%
- Boiling Durability % BPB EXTRACTION @ 595 nm (PET, boiled 30 minutes, Table XVII): 19%
- % BPB Extraction (change on boiling) (PET, Table I): −71%
- % EXTRACTION CHANGE (PET, Table III): −74%
- % EXTRACTION CHANGE (PET, Table IX): −73%
- EXTRACTION CHANGE (PET, Table VI): −63%
- % EXTRACTION CHANGE (PET, Table VII): −72%
- % EXTRACTION CHANGE (PET, Table XV): −50%
- % BPB EXTRACTION @ 595 nm (PET, boiled, Table IX): 14%
- % BPB EXTRACTION @ 595 nm (PET, boiled, Table VII): 91%
- % Extraction @ 595 nm (PET, not boiled, Table I): 89%
- % BPB EXTRACTION @ 595 nm (PET, not boiled, Table IX): 87%
- % Extraction @ 595 nm (PET, not boiled, Table VI): 89%
- % BPB EXTRACTION @ 595 nm (PET, not boiled, Table VII): 93%
- Boiling Durability % BPB EXTRACTION @ 595 nm (PET, not boiled, Table XVII): 83%
- % BPB EXTRACTION @ 595 nm (PET, not boiled, oven dried 130° C. 5 minutes, Table XV): 86%
- % BPB EXTRACTION @ 595 nm (PPNW, boiled 30 minutes, Table XV): 45%
- Boiling Durability % BPB EXTRACTION @ 595 nm (PPNW, boiled 30 minutes, Table XVII): 37%
- % EXTRACTION CHANGE (PPNW, Table XV): −40%
- % EXTRACTION CHANGE (PPNW, Table XVII): −40%
- Boiling Durability % BPB EXTRACTION @ 595 nm (PPNW, not boiled, Table XVII): 77%
- % BPB EXTRACTION @ 595 nm (PPNW, not boiled, oven dried 130° C. 5 minutes, Table XV): 85%
- % Extraction @ 595 nm (RAYON, boiled 30 minutes, Table I): 35%
- % BPB EXTRACTION @ 595 nm (RAYON, boiled 30 minutes, Table III): 50%
- % Extraction @ 595 nm (RAYON, boiled 30 minutes, Table VI): 44%
- % BPB Extraction (change on boiling) (RAYON, Table I): −55%
- % EXTRACTION CHANGE (RAYON, Table III): −44%
- % EXTRACTION CHANGE (RAYON, Table IX): −40%
- EXTRACTION CHANGE (RAYON, Table VI): −50%
- % EXTRACTION CHANGE (RAYON, Table VII): −50%
- % BPB EXTRACTION @ 595 nm (RAYON, boiled, Table IX): 52%
- % BPB EXTRACTION @ 595 nm (RAYON, boiled, Table VII): 42%
- % Extraction @ 595 nm (RAYON, not boiled, Table I): 90%
- % BPB EXTRACTION @ 595 nm (RAYON, not boiled, Table III): 94%
- % BPB EXTRACTION @ 595 nm (RAYON, not boiled, Table IX): 92%
- % Extraction @ 595 nm (RAYON, not boiled, Table VI): 94%
- % BPB EXTRACTION @ 595 nm (RAYON, not boiled, Table VII): 92%
- Boiling Durability - % BPB Extraction (Rayon): 9.88%
- Boiling Durability - % BPB Extraction (Rayon, treatment at pH = 11): 21.36%
- Strike Rate - % BPB Extraction (Rayon, treatment at pH = 11): 19.5%
- Boiled in H20 % Extraction (cure: 130° C. for 5 Min): 21%
- Change % Extraction (cure: 130° C. for 5 Min): −36%
- No Boil % Extraction (cure: 130° C. for 5 Min): 57%
- Boiled in H20 % Extraction (cure: Air Dried): 21%
- Change % Extraction (cure: Air Dried): −46%
- No Boil % Extraction (cure: Air Dried): 67%
